Structures can show the parent of a compound that is named as a salt. Where two headings read alike, the source gives them in different places.
Tests used:
[1] = test system: HCT116 tumour xenograft; assay: HCT116 tumour xenograft study; format: in vivo, female Balb/c nu/nu mice
[2] = molecular target: T1, CDK1/cycA1 (Homo sapiens, UniProt P06493); assay: In vitro kinase assay (PKLight luciferase ATP readout), CDK1; format: biochemical
T1 construct: purchased ProQinase GmbH
Procedure: (§1) Purified recombinant CDK1/cycA1, CDK2/cycA1, CDK4/cycD1, CDK5/p35NCK, CDK6/cycD1, CDK7/CycH/MAT1, and CDK9/CycT1 were purchased from ProQinase GmbH. Kinase assays were performed according to manufacturer's protocols. Rb-CTF (ProQinase GmbH) (cat number: 0040-0000-6) was used as the kinase substrate for CDK1, CDK2, CDK4, and CDK6 kinases. […] A luciferase assay (PKLight assay; Cambrex) was used to determine ATP remaining at the end of the kinase reaction, which provides a measure of kinase activity, according to the manufacturer's protocols.
(§2) Kinase assays were carried out by incubation of increasing amounts of test compound with purified recombinant CDK-Cyclin complex, followed by measurement of free ATP remaining in the reaction using the luciferase assay kit (PKLight, Cambrex) which therefore provided a measure of inhibition for the specific CDK.
(§3) 5 μL of 1× kinase buffer (Cell Signalling Technologies) was mixed with 200 ng CDK1, 200 ng CDK2, 50 ng CDK4, 100 ng CDK5, or 200 ng CDK6 with 5 μg Rb-CTF and 300 ng CDK7 or 200 ng CDK9 with 500 μM RNA Poll II CTD peptide. […] The mixture was incubated at 30° C. for 30 minutes. The reaction is stopped with 20 μL of Stop Solution (provided in the PKLight kit) for 10 minutes at room temperature. Then 40 μL of the luciferase mix was added to the reaction mixture which was incubated for a further 10 minutes at room temperature and measured using the Tecan Infinite 2000 plate reader. GraphPad Prism Software was used to generate standard curve and determine the IC50's for each CDK.

[3] = molecular target: T2, CDK4/cycD1 (Homo sapiens, UniProt P11802); assay: In vitro kinase assay (PKLight luciferase ATP readout), CDK4; format: biochemical; settings: ATP at Km; three experiments
T2 construct: purchased ProQinase GmbH
T2 sequence (P11802 whole entry): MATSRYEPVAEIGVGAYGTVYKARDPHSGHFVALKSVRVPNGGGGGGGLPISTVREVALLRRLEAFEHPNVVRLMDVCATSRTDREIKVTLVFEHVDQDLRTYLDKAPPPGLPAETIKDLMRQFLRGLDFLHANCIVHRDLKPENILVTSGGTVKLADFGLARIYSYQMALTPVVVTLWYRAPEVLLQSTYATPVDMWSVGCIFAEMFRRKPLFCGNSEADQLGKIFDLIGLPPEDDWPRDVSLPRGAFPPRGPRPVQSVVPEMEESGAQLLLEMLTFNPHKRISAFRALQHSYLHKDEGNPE
T2 sequence (P24385 whole entry partner): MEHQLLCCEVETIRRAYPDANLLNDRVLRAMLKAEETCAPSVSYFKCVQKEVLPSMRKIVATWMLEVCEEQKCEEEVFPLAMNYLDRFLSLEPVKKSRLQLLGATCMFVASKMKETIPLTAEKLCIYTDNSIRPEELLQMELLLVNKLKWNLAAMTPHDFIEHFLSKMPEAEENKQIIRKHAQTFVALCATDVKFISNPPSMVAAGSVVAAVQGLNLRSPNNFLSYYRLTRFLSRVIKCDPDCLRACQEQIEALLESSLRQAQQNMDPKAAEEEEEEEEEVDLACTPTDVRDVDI
Procedure: as §1, §2
as §3, with “The reaction is stopped with 20 μL of Stop Solution (provided in the PKLight kit) for 10 minutes at room temperature.” left out, “GraphPad Prism Software was used to generate standard curve and determine the IC50's for each CDK.” left out

[4] = test system: human tumor cell lines (NCI60); assay: NCI60 cancer cell line screen; format: cell-based
From the text: To extend the analysis to a more extensive set of cancer cell lines, PPDA-001 was submitted to the National Cancer Institute's Division of Cancer Treatment and Diagnosis in vitro screen of human tumor cell lines (http://dtp.nci.nih.gov/branches/btb/ivclsp.html).
Each line represents one cell line.

[5] = test system: MCF7 cells; assay: Cell growth inhibition assay (sulforhodamine B), MCF7; format: cell-based; settings: Homo sapiens
Procedure: (§4) All cells were purchased from the American Type Culture Collection (ATCC) and MCF7 cells were routinely cultured in Dulbecco's Modified Eagle's Medium (DMEM) supplemented with 10% fetal calf serum (FCS) (First Link) and HCT116 cells were routinely cultured in Roswell Park Memorial Instititute Medium (RPMI) supplemented with 10% FCS. Cell growth was assessed using a known sulforhodamine B assay (see, e.g., Skehan et al., 1990).
(§5) MCF-7 cells purchased from ATCC (USA) were routinely passaged in DMEM, supplemented with 10% FCS and HCT116 cells purchased from ATCC (USA) were routinely passaged in RPMI supplemented with 10% FCS and kept in a 37° C. incubator with 5% CO2. The growth assay for both cell lines was performed in the appropriate media using the exact same protocol as described here. For the growth assay, 5000 cells were seeded into each well of 96-well plates in DMEM containing 10% FCS. Test compounds prepared in DMSO were added to the medium at concentrations ranging from 0.00038-100 μM. The cells were incubated for a further 72 hours, at which time they were fixed by the addition of 100 μL/well of ice-cold 40% trichloroacetic acid (TCA). The plates were left for 1 hour at 4° C., washed in water and 100 μL of 0.4% (w/v) sulforhodamine (SRB; Sigma-Aldrich, UK) prepared in 1% acetic acid was added. Plates were washed in 1% acetic acid to remove excess SRB reagent, air dried, and bound dye was solubilized by the addition of 100 μL of 10 mM tris base. The plates were read at 492 nm using a plate reader.

[6] = molecular target: T3, CDK6/cycD1 (Homo sapiens, UniProt Q00534); assay: In vitro kinase assay (PKLight luciferase ATP readout), CDK6; format: biochemical; settings: ATP at Km; three experiments
T3 construct: purchased ProQinase GmbH
T3 sequence (Q00534 whole entry): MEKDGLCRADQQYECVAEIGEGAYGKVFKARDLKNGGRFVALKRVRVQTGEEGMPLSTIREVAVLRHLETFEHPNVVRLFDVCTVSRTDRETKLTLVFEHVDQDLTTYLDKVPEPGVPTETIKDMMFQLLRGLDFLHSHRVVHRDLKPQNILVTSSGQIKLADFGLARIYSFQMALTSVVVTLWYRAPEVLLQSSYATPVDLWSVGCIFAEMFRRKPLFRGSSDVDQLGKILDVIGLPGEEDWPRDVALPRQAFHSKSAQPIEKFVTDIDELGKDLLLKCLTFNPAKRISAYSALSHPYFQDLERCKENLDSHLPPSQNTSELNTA
T3 sequence (P24385 whole entry partner): as the sequence (P24385 whole entry partner) above
Procedure: as §1, §2
as §3, with “The reaction is stopped with 20 μL of Stop Solution (provided in the PKLight kit) for 10 minutes at room temperature.” left out, “GraphPad Prism Software was used to generate standard curve and determine the IC50's for each CDK.” left out

[7] = molecular target: T4, CDK5/p35NCK (Homo sapiens, UniProt Q00535); assay: In vitro kinase assay (PKLight luciferase ATP readout), CDK5; format: biochemical; settings: ATP at Km; three experiments
T4 construct: purchased ProQinase GmbH
T4 sequence (Q00535 whole entry): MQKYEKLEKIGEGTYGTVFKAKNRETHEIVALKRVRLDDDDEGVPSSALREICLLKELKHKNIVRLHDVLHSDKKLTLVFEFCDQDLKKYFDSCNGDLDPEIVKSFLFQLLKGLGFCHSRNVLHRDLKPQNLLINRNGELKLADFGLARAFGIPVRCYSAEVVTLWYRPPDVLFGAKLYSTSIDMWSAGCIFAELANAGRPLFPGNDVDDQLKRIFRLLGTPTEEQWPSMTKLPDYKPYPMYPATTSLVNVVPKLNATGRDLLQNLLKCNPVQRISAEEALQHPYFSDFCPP
T4 sequence (Q15078 whole entry partner): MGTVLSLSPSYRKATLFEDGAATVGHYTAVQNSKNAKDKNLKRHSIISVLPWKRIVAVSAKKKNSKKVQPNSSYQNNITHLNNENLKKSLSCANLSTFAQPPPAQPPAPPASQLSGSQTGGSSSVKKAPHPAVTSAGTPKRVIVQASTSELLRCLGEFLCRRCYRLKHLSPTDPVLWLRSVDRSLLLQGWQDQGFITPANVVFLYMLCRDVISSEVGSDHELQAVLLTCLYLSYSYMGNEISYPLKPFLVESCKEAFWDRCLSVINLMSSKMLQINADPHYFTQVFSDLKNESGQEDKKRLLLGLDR
Procedure: as §1, §2
as §3, with “The reaction is stopped with 20 μL of Stop Solution (provided in the PKLight kit) for 10 minutes at room temperature.” left out, “GraphPad Prism Software was used to generate standard curve and determine the IC50's for each CDK.” left out

[8] = test system: phospho-ER S118 in MCF-7 cells; assay: Immunoblot of ER serine-118 phosphorylation in MCF-7 cells; format: cell-based; settings: 1 μmol/L, time course, FIG. 6
Procedure: Cell lysates were prepared by the addition of RIPA buffer (Sigma-Aldrich, cat no: R0278). Immunoblotting was carried out using standard methods (see, e.g., Harlow & Lane, 1988, Antibodies: A Laboratory Manual, Cold Spring Harbor Laboratory Press, USA), with antibodies for the protein or phosphorylation mark indicated. β-actin was used as control for protein loading. The second antibody was HRP-coupled Goat anti Mouse or Rabbit IgG.

[9] = test system: HCT116 cells; assay: Cell growth inhibition assay (sulforhodamine B), HCT116; format: cell-based; settings: Homo sapiens, HCT-116
Procedure: as §4, §5

[10] = molecular target: T5, CDK7/CycH/MAT1 (Homo sapiens, UniProt P50613); assay: In vitro kinase assay (PKLight luciferase ATP readout), CDK7; format: biochemical; settings: for IC50: ATP at Km, read-out: In vitro Kinase Inhibition CDK7 IC50; for Selectivity CDK1/CDK7: ratio of CDK1 IC50 to CDK7 IC50; for Selectivity CDK2/CDK7: ratio of CDK2 IC50 to CDK7 IC50
T5 construct: purchased ProQinase GmbH
T5 sequence (P50613 whole entry): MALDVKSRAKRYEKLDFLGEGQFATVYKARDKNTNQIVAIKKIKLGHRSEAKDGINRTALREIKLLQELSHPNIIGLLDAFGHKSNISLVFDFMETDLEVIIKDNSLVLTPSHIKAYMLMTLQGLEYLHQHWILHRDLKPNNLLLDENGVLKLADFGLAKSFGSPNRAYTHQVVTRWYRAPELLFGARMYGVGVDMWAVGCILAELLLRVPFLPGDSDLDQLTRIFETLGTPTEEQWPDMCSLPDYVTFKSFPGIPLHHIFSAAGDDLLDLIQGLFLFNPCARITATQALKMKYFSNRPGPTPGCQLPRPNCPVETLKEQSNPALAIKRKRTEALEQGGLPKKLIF
T5 sequence (P51946 whole entry partner): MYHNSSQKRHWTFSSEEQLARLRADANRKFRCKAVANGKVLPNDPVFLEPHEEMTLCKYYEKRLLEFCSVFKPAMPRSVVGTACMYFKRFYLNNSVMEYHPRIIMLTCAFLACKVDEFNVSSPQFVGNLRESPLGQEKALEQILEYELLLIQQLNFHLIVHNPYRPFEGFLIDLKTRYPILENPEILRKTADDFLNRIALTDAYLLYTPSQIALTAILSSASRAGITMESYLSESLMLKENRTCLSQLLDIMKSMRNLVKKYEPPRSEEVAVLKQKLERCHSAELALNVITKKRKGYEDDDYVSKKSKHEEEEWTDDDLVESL
T5 sequence (P51948 whole entry partner): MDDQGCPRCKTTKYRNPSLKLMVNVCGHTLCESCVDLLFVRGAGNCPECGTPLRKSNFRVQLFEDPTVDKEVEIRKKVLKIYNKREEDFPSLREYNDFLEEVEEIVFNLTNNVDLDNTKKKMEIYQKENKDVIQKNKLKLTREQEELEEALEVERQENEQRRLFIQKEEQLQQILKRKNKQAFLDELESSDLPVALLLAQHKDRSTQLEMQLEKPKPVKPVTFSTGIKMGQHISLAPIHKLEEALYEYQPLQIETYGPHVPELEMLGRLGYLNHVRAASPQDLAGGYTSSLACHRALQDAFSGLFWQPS
Procedure: as §1, §2, §3

[11] = molecular target: T6, CDK2/cycA1 (Homo sapiens, UniProt P24941); assay: In vitro kinase assay (PKLight luciferase ATP readout), CDK2; format: biochemical; settings: ATP at Km; read-out: In vitro Kinase Inhibition CDK2 IC50
T6 construct: purchased ProQinase GmbH
Procedure: as §1, §2, §3

[12] = 72 hours, SRB assay, read-out: Growth Inhibition, GI50 MCF7
[13] = 72 hours, SRB assay, read-out: Growth Inhibition, GI50 HCT116
[14] = ATP at Km, read-out: In vitro Kinase Inhibition CDK1 IC50

| SMILES | reduction in tumor growth ([1]; 50 mg/kg/bi-daily and 100 mg/kg once daily PO, compared with the control arms) [%] | Animal weight (percent body weight) ([1]; PPDA-001 treatment arms (50 mg/kg bi-daily, 100 mg/kg once daily, PO), over the course of the study, vehicle 98%) [%] | IC50 [2] [nM] | IC50 [3] [nM] | GI50 ([4]; mean of all 60 cell lines, read-out: mean GI50 over 60 cancer cell lines) [nM] | GI50 ([4]; range over all 60 cell lines, read-out: range GI50 over 60 cancer cell lines) [nM] | GI50 [5, 12] [nM] | GI50 ([5]; read-out: GI50, breast (MCF7) cancer cell line) [nM] | IC50 [6] [nM] | IC50 [7] [nM] | phosphorylation of ER at serine-118 (phospho-ER S118) [8] | GI50 [9, 13] [nM] | GI50 ([9]; read-out: GI50, colorectal (HCT116) cancer cell line) [nM] | IC50 [10] [nM] | Selectivity CDK1/CDK7 [10] [fold] | Selectivity CDK2/CDK7 [10] [fold] | IC50 [2, 14] [nM] | IC50 [11] [nM] |
| --- | --- | --- | --- | --- | --- | --- | --- | --- | --- | --- | --- | --- | --- | --- | --- | --- | --- | --- |
| CC(C)c1cnn2c(NCc3ccccc3)cc(NC[C@H]3CCNC[C@@H]3O)nc12 [PPDA-001, (3R,4R)-4-(((7-(Benzylamino)-3-isopropylpyrazolo[1,5-a]pyrimidin-5-yl)amino)methyl)piperidin-3-ol hydrochloride] | 65 | 92 | 1520 | 42100 | 280 | 40 to 2100 | 960 | < 1000 | 32100 | 9000 | inhibits phosphorylation of ER at serine-118 | 630 | < 1000 |  |  |  |  |  |
| CC(C)c1cnn2c(NCc3ccncc3)cc(NCC3(O)CCNCC3)nc12 [PPDA-010, 4-(((3-iso-Propyl-7-((pyridin-4-ylmethyl)amino)pyrazolo[1,5-a]pyrimidin-5-yl)amino)methyl)piperidin-4-ol hydrochloride] |  |  |  |  |  |  | 11900 |  |  |  |  | 25000 |  | 788 | 4.6 | 0.1 | 3620 | 115 |
| CC(C)c1cnn2c(NCc3ccccc3Cl)cc(NCC3(O)CCNCC3)nc12 [PPDA-011] |  |  |  |  |  |  | 300 |  |  |  |  | 1600 |  | 414 | 0.3 | 0.2 | 143 | 98 |
| CC(C)c1cnn2c(NCc3ccccc3Br)cc(NCC3(O)CCNCC3)nc12 [PPDA-012] |  |  |  |  |  |  | 500 |  |  |  |  | 1600 |  | 484 | 0.2 | 0.2 | 74 | 118 |
| CC(C)c1cnn2c(NCC3CCCCC3)cc(NCC3(O)CCNCC3)nc12 [PPDA-013] |  |  |  |  |  |  | 1200 |  |  |  |  | 1100 |  | 80 | 4.1 | 4.3 | 330 | 344 |
| CC(C)c1cnn2c(NCC3CCCCC3)cc(N[C@H]3CNC[C@H]3O)nc12 [PPDA-016] |  |  |  |  |  |  | 13100 |  |  |  |  | 7400 |  | 246 | 5.9 | 18 | 1460 | 4550 |
| CC(C)c1cnn2c(NCc3ccc(C(F)(F)F)cc3)cc(N[C@H]3CNC[C@H]3O)nc12 [PPDA-017] |  |  |  |  |  |  | 12800 |  |  |  |  | 11400 |  | 1890 | 0.7 | 0.4 | 1350 | 754 |
| CC(C)c1cnn2c(NCc3ccccc3)cc(N[C@@H]3CNCC[C@H]3O)nc12 [PPDA-022, (3R,4R)-3-(7-(Benzylamino)-3-iso-propyl-pyrazolo[1,5-a]pyrimidin-5-ylamino) piperidin-4-ol] |  |  |  |  |  |  | 3700 |  |  |  |  | 10400 |  | 73 | 26 | 7.8 | 1900 | 568 |
| CO[C@@H]1CCNCC1Nc1cc(NCc2ccccc2)n2ncc(C(C)C)c2n1 (stereo partly shown) [PPDA-023] |  |  |  |  |  |  | 3700 |  |  |  |  | 5600 |  | 60 | 20 | 7.5 | 1200 | 450 |
| CC(C)c1cnn2c(NCc3ccccc3)cc(N[C@H]3CNCC[C@@]3(O)CO)nc12 [PPDA-024] |  |  |  |  |  |  | 12200 |  |  |  |  | 46400 |  | 150 | 5.6 | 6.8 | 844 | 1030 |
| CC(C)c1cnn2c(NCc3ccccc3)cc(N[C@@H]3CN[C@H](CO)C3)nc12 [PPDA-026, ((2S,4S)-4-(7-(Benzylamino)-3-iso-propylpyrazolo[1,5-a]pyrimidin-5-ylamino)pyrrolidin-2-yl)methanol hydrochloride] |  |  |  |  |  |  | 2000 |  |  |  |  | 10700 |  | 89 | 1.8 | 2.3 | 162 | 203 |
| COC[C@H]1C[C@@H](Nc2cc(NCc3ccccc3)n3ncc(C(C)C)c3n2)CN1 [PPDA-027] |  |  |  |  |  |  | 3400 |  |  |  |  | 8900 |  | 18 | 14 | 38 | 253 | 680 |
| CC(C)c1cnn2c(NCc3ccccc3)cc(N[C@H]3CN[C@@H](CO)C3)nc12 [PPDA-028] |  |  |  |  |  |  | 3300 |  |  |  |  | 7300 |  | 43 | 93 | 6.1 | 4010 | 262 |
